Measured values published in US8283366B2, “Derivatives of pyridoxine for inhibiting HIV integrase” (Ambrilia Biopharma, Inc., priority 2010, dated 2012).
Read-outs that look alike come from different tables or passages of the source.

What was measured:
[1] = tested on: wild type NL-4.3; assay: Multi-cycle infection assay in MT-4 cells, MTT cytoprotection readout; format: cell-based, HIV-1; details: read-out: EC50 (nM) multi-cycle
Experimental: The antiviral efficacies of the integrase inhibitor compounds of the invention were evaluated based on EC50 measures obtained from two different in vitro HIV infection assay using cultured MT-4 cells: (1) a multi-cycle infection where cells were infected with wild type NL-4.3) and (2) a single-cycle infection where the cells were infected with a luciferase-bearing, envelope defective (env-) NL-4.3 virus pseudotyped with HIV-1 env (HXBc2.
The incubation period for the multi-cycle infection assay was 6 days. Cell viability (cytoprotection) and EC50 were determined using the colorimetric MTT assay (A. J. Japour et al, Antimicrobial Agents and Chemotherapy, 37, 1095-1101, 1993 and R. Pauwels et al. Journal of Virological Methods, 20, 309-321, 1988).

[2] = tested on: NL4.3 virus; assay: Multi-cycle antiviral activity without and with human serum, p24 ELISA; details: for EC50: Human immunodeficiency virus 1, 144 h; for Fold-change with HS: EC50 with 40% HS versus 10% FBS alone
Experimental: The multi-cycle antiviral activity in the absence and presence of human serum was determined by p24 ELISA measurement after 6 days of NL4.3 virus infection.

[3] = biological target: T1, recombinant HIV-1 integrase (Human immunodeficiency virus type 1 group M subtype B, UniProt P04585); assay: Integrase strand transfer assay; format: biochemical; details: compounds added after assembly, 10% DMSO, read-out: ST IC50
T1 construct: recombinant HIV-1 integrase
Experimental: IC50 was determined for the compounds of the inventions based on data generated in strand transfer assays. The IC50 is a measure of the ability of the compounds tested to inhibit the integration of 3′-processed oligonucleotides by recombinant HIV-1 integrase.
Strand transfer assays were performed essentially as described in Hazuda, D. J.; Felock, P.; Hastings, J. C.; Pramanik, B.; Wolfe, A. J. Virol. 1997, 71, 7005-7011). Donor DNA (1.5 pmol/well), biotinylated on the 5′ end of the strand processed by integrase, was immobilized onto streptavidin-coated microtiter plates. Recombinant integrase (250 ng/well) was assembled onto the immobilized donor oligonucleotide in reaction buffer (20 mM Hepes, pH 7.6, 5 mM B-mercaptoethanol, 50 ug/mL bovine serum albumin) containing 30 mM MnCl2. Excess enzyme was removed, and the complexes were washed extensively prior to the addition of the target DNA substrate. The target DNA (0.75 pmoles/well) substrate was labeled on each 3′ end with FITC. After strand transfer, the FITC-labeled products were detected using an anti-FITC antibody conjugated with alkaline phosphatase (Roche) and a chemi-luminescent substrate (Tropix CSPD with Sapphire II enhancer, Applied Biosystems). The assay was performed in a final concentration of 10% DMSO. To specifically evaluate inhibition of strand transfer, compounds were added after assembly, just prior to the addition of the target DNA.
The results of the integrase strand transfer assay are reported as IC50 values. IC50 values were determined using a sigmoidal dose-response equation. The formula used for calculating % inhibition was: % Inhibition=[1−(sample counts/average of positive control)]*100.

[4] = read-out: EC50 (uM) 10% FBS + 40% HS
[5] = Human immunodeficiency virus 1, MT4, 144 h, MT-4 cells, 6 days incubation, MTT

Row | SMILES | EC50 [1, 5] [nM] | IC50 [3] [nM] | other results
1 | Cc1nnc(C(=O)NC(C)(C)c2nc(C(=O)NCc3ccc(F)cc3)c(O)c(=O)n2C)o1 [Raltegravir, reference compound] | – | – | EC50 ([1]; Human immunodeficiency virus 1, MT4, 144 h): 20 nM; EC50 ([2]; read-out: EC50 (uM) 10% FBS): 0.047 µM; EC50 [2, 4]: 0.064 µM
2 | CN(O)C(=O)c1ncc(C(O)c2ccc(F)cc2)c(CO)c1O (stereo not drawn) [Example 5, 5-((4-fluorophenyl)(hydroxy)methyl)-N,3-dihydroxy-4-(hydroxymethyl)-N-methylpicolinamide] | 421 | – | –
3 | Cc1c(C(O)c2ccc(F)cc2)cnc(C(=O)NO)c1O (stereo not drawn) [Example 8, 5-((4-fluorophenyl)(hydroxy)methyl)-N,3-dihydroxy-4-methylpicolinamide] | 8 | – | –
4 | O=C(NO)c1ncc([C@@H](O)c2ccc(F)c(Cl)c2)c(CO)c1O [Example 11, (S)-5-((3-Chloro-4-fluorophenyl)(hydroxy)methyl)-N,3-dihydroxy-4-(hydroxymethyl)picolinamide] | 2 | 23 | Fold-change with HS [2]: 1; EC50 ([2]; read-out: EC50 (uM) 10% FBS): 0.001 µM; EC50 [2, 4]: 0.001 µM
5 | CONC(=O)c1ncc(C(O)c2ccc(F)cc2)c(CO)c1O (stereo not drawn) [Example 6, 5-((4-fluorophenyl)(hydroxy)methyl)-3-hydroxy-4-(hydroxymethyl)-N-methoxypicolinamide] | 74 | – | –
6 | Cc1c(Cc2ccc(F)cc2)cnc(C(=O)NO)c1O [Example 7, 5-(4-fluorobenzyl)-N,3-dihydroxy-4-methylpicolinamide] | 21 | – | –
7 | O=C(NO)c1ncc(C(O)c2ccc(F)cc2)c(CO)c1O (stereo not drawn) [Example 3, 5-((4-fluorophenyl)(hydroxy)methyl)-N,3-dihydroxy-4-(hydroxymethyl)picolinamide] | 2 | – | –
8 | O=C(NO)c1ncc(Cc2ccc(F)cc2)c(CO)c1O [Example 2, 5-(4-fluorobenzyl)-N,3-dihydroxy-4-(hydroxymethyl)picolinamide] | 10 | 35 | –
9 | Cc1c(C(=O)c2ccc(F)cc2)cnc(C(=O)NO)c1O [Example 9, 5-(4-fluorobenzoyl)-N,3-dihydroxy-4-methylpicolinamide] | 6680 | – | –
10 | O=C(O)C(O)=CC(=O)c1cc(OCc2ccccc2)cc(OCc2ccccc2)c1 [Example L-708906, reference compound] | – | 45 | EC50 ([1]; MT-4 cells, 6 days incubation, MTT): 5800 nM
11 | Cc1c(/C(=N/O)c2ccc(F)cc2)cnc(C(=O)NO)c1O [Example 10, (E)-5-((4-fluorophenyl)(hydroxyimino)methyl)-N,3-dihydroxy-4-methylpicolinamide] | 49 | – | –
12 | O=C(NO)c1ncc([C@H](O)c2ccc(F)c(Cl)c2)c(CO)c1O [Example 1, (R)-5-((3-Chloro-4-fluorophenyl)(hydroxy)methyl)-N,3-dihydroxy-4-(hydroxymethyl)picolinamide] | 4 | 56 | Fold-change with HS [2]: 1; EC50 ([2]; read-out: EC50 (uM) 10% FBS): 0.006 µM; EC50 [2, 4]: 0.006 µM
